SMILES strings stand for the structures. Values after ≈ are worked out from the molar mass of the structure shown. Active and inactive are the calls of the source. No cut-off for these calls is given here. Where only a bound is given, the exact number is not on record here.

Broadly, the Ki is the equilibrium dissociation constant of an inhibitor or competing ligand from its target. The term half-life denotes the time in which the quantity being followed falls by half. The solubility is the concentration that dissolves in the medium under given conditions. The low end stands for a poorly soluble substance, the high end for a readily soluble substance. What is called IC50 is the point on the concentration scale where inhibition reaches its midpoint. For orientation: inhibition means the drop in the measured response relative to a control, in per cent. As usually defined, the ED50 is the midpoint of the dose-response relation.

One series has as its target Mu-type opioid receptor (Rattus norvegicus, UniProt P33535). The experiment in a line: Displacement of [3H]-DAMGO from Sprague-Dawley rat brain membrane mu opioid receptor incubated for 45 mins by liquid scintillation counting analysis. Type of series: cell membranes. In general terms: Loss of bound radioactivity is the signal in a displacement assay; it reports binding, not function.

The target in series [1] is Delta-type opioid receptor (Rattus norvegicus, UniProt P33533). The experiment in a line: Displacement of [3H]-(2-D-Ala)[Tyrosy1-3,5-]-DELTORPHIN II from Sprague-Dawley rat brain membrane delta opioid receptor incubated for 45 mins by liquid scintillation counting analysis. In kind it is cell membranes.
Sequence of Delta-type opioid receptor (P33533 whole entry): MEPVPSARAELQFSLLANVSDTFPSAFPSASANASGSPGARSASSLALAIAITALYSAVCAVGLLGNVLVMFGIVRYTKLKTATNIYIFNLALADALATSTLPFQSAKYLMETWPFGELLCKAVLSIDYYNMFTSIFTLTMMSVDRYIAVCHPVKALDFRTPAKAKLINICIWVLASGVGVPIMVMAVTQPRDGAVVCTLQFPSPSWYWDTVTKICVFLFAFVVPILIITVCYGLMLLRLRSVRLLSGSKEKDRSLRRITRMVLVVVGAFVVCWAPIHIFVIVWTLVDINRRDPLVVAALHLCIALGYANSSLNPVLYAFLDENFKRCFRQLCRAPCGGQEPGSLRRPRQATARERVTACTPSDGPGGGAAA
The target in series [2] is Kappa-type opioid receptor (Cavia porcellus, UniProt P41144). Kind of series: Displacement of [3H]-U69593 from Dunkin-Hartley guinea pig brain membrane kappa opioid receptor incubated for 30 mins by liquid scintillation counting analysis. In kind it is cell membranes.
Sequence of Kappa-type opioid receptor (P41144 whole entry): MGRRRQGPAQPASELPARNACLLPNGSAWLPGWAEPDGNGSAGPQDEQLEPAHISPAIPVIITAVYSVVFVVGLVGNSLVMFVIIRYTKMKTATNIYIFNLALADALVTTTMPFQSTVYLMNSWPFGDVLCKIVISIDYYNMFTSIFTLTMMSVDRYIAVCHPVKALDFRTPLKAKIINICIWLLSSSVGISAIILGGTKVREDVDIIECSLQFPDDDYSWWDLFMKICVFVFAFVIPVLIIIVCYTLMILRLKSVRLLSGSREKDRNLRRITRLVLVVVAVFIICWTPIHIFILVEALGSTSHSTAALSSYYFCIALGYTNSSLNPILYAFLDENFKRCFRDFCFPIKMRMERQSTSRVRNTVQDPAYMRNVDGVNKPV
Series [3] addresses T1, Sigma intracellular receptor 2 (Rattus norvegicus, UniProt Q5U3Y7).
T1 sequence (Q5U3Y7 whole entry): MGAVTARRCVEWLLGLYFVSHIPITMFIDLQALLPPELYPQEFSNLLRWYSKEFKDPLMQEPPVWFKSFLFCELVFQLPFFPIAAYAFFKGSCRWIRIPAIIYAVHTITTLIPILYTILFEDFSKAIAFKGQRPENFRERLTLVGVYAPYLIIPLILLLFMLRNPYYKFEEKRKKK
The experiment in a line: biochemical.

For series [4], the system named is Mus musculus. The experiment in a line: Analgesic activity in wild type CD1 mouse model of capsaicin-induced mechanical hypersensitivity assessed as reduction of capsaicin-induced mechanical hypersensitivity at 40 mg/kg, sc in presence of sigma1 receptor agonist PRE-084. Type of series: functional, organism-based.
A short description of series [5]: Induction of H2S release in PBS buffer incubated for 1 hrs in presence of Washington State Probe-1 by spectrofluorimeter assay. In kind it is functional.
Series [6] deals with Mus musculus. The experiment in a line: Analgesic activity in wild type CD1 mouse model of capsaicin-induced mechanical hypersensitivity assessed as reduction of capsaicin-induced mechanical hypersensitivity at 10 to 40 mg/kg, sc. To be noted: dose 10-40 mg/kg. Type of series: functional, organism-based.
In series [7] the target is T2, Sigma non-opioid intracellular receptor 1 (Cavia porcellus, UniProt Q60492). Kind of series: biochemical.
T2 sequence (Q60492 whole entry): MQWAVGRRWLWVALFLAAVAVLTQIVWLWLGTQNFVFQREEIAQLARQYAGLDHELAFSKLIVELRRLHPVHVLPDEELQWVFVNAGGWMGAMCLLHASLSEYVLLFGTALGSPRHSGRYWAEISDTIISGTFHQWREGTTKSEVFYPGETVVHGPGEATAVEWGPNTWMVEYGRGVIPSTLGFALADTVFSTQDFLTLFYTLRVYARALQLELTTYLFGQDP
Series [8] is described as follows: Induction of motor coordination impairment in wild type CD1 mouse assessed as latency to fall at 40 mg/kg, sc measured upto 4 hrs by rotarod test. Type of series: toxicity, organism-based. To be noted: in vivo.
Series [9] in a line: Stability of compound in phosphate buffer at pH 7.4 assessed as half life by UHPLC-PDA analysis. Type of series: physicochemical.
Series [10] is described as follows: Induction of hypotension in wild type CD1 mouse assessed as mean arterial blood pressure at 30 to 40 mg/kg, sc incubated upto 45 mins by tail-cuff plethysmography. Type of series: toxicity, organism-based. Particulars: in vivo, 0.75 h, dose 30-40 mg/kg.
Series [11] is described as follows: Stability of compound in saline solution assessed as half life by UHPLC-PDA analysis. Type of series: physicochemical.
The nature of series [12]: Aqueous solubility of compound at 5 mg measured for 24 hrs by UHPLC-PDA analysis. Type of series: physicochemical. Particulars: water.
Series [13] concerns the target Voltage-gated inwardly rectifying potassium channel KCNH2 (Homo sapiens, UniProt Q12809). The experiment in a line: Inhibition of human ERG potassium channel expressed in CHO-K1 cells by Qube-automated patch clamp assay. Type of series: toxicity, cell-based.
Another series has as its target hERG (KCNH2) (Homo sapiens, UniProt Q12809). The experiment in a line: Inhibition of human ERG potassium channel expressed in CHO-K1 cells at 10 uM by Qube-automated patch clamp assay relative to control. In kind it is toxicity, cell-based. Particulars: CHO-K1 cells expressing human ERG potassium channel. (In general: In patch-clamp work, channel activity is measured electrically.)

The nature of series [14]: Induction of H2S release in PBS buffer at 100 uM in presence of Washington State Probe-1 by spectrofluorimeter assay. In kind it is functional.
Series [15] concerns Mus musculus. Kind of series: Analgesic activity in wild type CD1 mouse model of capsaicin-induced mechanical hypersensitivity assessed as reduction in mechanical hypersensitivity at 5 mg/kg, sc in presence of BD-1063 at 5 mg/kg and PRE-084 at 32 mg/kg. Type of series: functional, organism-based.
The subject of series [16] is Mus musculus. The experiment in a line: Antinociceptive activity in wild type CD1 mouse model of capsaicin-induced mechanical hypersensitivity assessed as reduction in mechanical hypersensitivity at 10 mg/kg, sc in presence of Sigma 1 receptor agonist PRE-084. In kind it is functional, organism-based.
Series [17] concerns Mus musculus. The experiment in a line: Analgesic activity in wild type CD1 mouse model of capsaicin-induced mechanical hypersensitivity assessed as reduction in mechanical hypersensitivity at 5 mg/kg, sc in presence of sigma-1 receptor antagonist BD-1063 at 5 mg/kg. Type of series: functional.
Series [18] has as its system Mus musculus. The experiment in a line: Antinociceptive activity in sc dosed wild type CD1 mouse model of capsaicin-induced mechanical hypersensitivity assessed as reduction in mechanical hypersensitivity. In kind it is functional.
Series [19] in a line: Induction of motor coordination impairment in wild type CD1 mouse assessed as latency to fall at 5 mg/kg, sc in presence of sigma-1 receptor […] BD-1063 at 5 mg/kg, sc measured upto 4 hrs by rotarod test. Type of series: toxicity, organism-based. To be noted: in vivo. A general note: Falling from the rotarod earlier than controls is read as motor impairment.
The target of series [20] is T2, Sigma non-opioid intracellular receptor 1.
Series [21] concerns the target Sigma non-opioid intracellular receptor 1 (Homo sapiens, UniProt Q99720). The experiment in a line: Displacement of [3H]-pentazocine from Sigma 1-receptor (unknown origin).
For series [22], the target named is Sigma intracellular receptor 2 (Homo sapiens, UniProt Q5BJF2). The experiment in a line: Displacement of [3H]-di-o-tolylguanidine from Sigma 2-receptor (unknown origin).
Sequence of Sigma intracellular receptor 2 (Homo sapiens, UniProt Q5BJF2) (Q5BJF2 whole entry): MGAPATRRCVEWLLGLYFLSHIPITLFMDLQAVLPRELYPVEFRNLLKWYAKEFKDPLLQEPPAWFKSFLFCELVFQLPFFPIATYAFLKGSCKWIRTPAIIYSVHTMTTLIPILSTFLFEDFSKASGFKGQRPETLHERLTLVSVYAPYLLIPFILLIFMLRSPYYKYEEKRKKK

Sequence of Mu-type opioid receptor (P33535 whole entry): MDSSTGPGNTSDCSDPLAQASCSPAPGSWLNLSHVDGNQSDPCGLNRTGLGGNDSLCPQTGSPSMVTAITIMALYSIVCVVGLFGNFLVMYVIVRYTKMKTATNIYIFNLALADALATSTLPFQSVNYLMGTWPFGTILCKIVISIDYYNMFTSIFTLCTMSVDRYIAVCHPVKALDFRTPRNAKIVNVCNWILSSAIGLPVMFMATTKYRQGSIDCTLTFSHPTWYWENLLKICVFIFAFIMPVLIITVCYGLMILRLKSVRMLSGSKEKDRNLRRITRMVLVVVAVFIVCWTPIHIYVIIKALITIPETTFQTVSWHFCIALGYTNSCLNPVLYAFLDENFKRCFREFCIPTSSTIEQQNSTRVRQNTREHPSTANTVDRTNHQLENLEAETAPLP
Sequence of Voltage-gated inwardly rectifying potassium channel KCNH2 (Q12809 whole entry): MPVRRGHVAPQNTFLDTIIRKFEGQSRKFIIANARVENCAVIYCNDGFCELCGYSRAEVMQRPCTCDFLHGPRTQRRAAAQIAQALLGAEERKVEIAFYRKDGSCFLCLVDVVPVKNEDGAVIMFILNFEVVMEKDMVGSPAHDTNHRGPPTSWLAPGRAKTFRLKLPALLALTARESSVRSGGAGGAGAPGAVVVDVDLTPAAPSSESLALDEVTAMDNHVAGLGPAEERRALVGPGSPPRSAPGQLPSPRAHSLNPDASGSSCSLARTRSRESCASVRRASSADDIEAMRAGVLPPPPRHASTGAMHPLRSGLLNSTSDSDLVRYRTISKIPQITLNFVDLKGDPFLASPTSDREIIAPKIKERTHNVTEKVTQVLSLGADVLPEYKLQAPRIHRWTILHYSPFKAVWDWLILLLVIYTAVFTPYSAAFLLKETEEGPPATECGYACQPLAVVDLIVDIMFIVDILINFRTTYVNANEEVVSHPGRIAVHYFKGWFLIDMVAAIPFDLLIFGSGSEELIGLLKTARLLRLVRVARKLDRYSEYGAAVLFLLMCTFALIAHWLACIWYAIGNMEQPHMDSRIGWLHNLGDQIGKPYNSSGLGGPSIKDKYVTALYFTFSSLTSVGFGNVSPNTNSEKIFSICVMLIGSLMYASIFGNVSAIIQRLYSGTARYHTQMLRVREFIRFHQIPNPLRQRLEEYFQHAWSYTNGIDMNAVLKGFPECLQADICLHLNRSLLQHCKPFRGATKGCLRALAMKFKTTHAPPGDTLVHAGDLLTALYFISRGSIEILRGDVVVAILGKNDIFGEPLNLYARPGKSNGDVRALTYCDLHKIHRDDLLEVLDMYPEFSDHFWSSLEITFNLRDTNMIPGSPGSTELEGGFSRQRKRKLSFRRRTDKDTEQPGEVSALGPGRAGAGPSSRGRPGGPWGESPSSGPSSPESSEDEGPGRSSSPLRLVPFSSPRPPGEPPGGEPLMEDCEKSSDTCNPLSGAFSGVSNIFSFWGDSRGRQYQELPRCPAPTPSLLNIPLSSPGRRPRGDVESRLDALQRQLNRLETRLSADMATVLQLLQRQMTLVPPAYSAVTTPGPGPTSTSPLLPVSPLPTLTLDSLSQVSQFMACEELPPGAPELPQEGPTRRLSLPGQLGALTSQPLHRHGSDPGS
Sequence of hERG (KCNH2) (Q12809 whole entry): as above
Sequence of Sigma non-opioid intracellular receptor 1 (Homo sapiens, UniProt Q99720) (Q99720 whole entry): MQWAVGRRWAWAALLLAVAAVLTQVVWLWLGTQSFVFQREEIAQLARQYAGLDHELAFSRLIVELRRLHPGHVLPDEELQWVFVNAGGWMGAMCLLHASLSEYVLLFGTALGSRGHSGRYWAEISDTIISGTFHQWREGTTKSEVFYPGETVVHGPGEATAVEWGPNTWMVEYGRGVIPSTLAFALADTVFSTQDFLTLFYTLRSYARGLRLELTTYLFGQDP

Regarding `NC(=O)c1ccc(C(=O)NC2CCN(Cc3ccccc3)CC2)cc1`, the inhibitory constant (Ki) (on Mu-type opioid receptor; in series [1]; in series [2]) was over 10000 nM in each case.

As for `NC(=S)c1ccc(C(=O)N2CCN(Cc3ccccc3)CC2)cc1`, the Ki is over 10000 nM at Mu-type opioid receptor; over 10000 nM in series [1]; over 10000 nM in series [3]; 668 nM in [7]; over 10000 nM in [2]. In addition, the outcome with Mus musculus [4] was Active. The figures for the Activity (in series [5]; in the series with Mus musculus [6] (DDE = dose-dependent effect)) were 46.7 µM and “Dde”, respectively.

Consider `NC(=S)c1ccc(C(=O)NC2CCN(Cc3ccccc3)CC2)cc1`, for which the Activity entry in series [8] was “Non-Toxic”; in [5] it was 38.4 µM; in [10], “Non-Toxic”. The Ki (on Mu-type opioid receptor; in series [1]; in series [2]) was over 10000 nM in each case. The half-life in series [9] amounted to 1.55 h; in series [11], 4.17 h. Further, the outcome in the series on Mus musculus [4] and with Mus musculus [6] was Active. Moreover, the concentration in solution in series [12] (solubility at 24 h) came to 1.25 µM (≈ 0.442 µg/mL). Half-maximal inhibition in [13] (IC50) required 6800 nM. The molecule further returned an inhibition at 10 µM against hERG (KCNH2) of 60%.

Consider `NC(=S)c1ccc(C(=O)O)cc1`, for which the inhibition constant (Ki) (on Mu-type opioid receptor; in [1]; in series [2]) was over 10000 nM in each case. The outcome (in [14]; in the series on Mus musculus [15]; in the series with Mus musculus [16]) was Active. Further, the Activity in series [5] was 34.4 µM; in [19] it was “Non-Toxic”. In addition, the ED50 came out at 7.52 mg/kg in the series with Mus musculus [17] and 6.12 mg/kg in the series with Mus musculus [18]. Further, the ED75 in the series with Mus musculus [17] came out at 9.75 mg/kg. In the series on Mus musculus [17], the ED90 was found to be 12.6 mg/kg.

For `NC(=O)c1ccc(C(=O)N2CCN(Cc3ccccc3)CC2)cc1`, the inhibition constant (Ki) on Mu-type opioid receptor is 2550 nM; in series [1], over 10000 nM; in series [3] it was over 10000 nM; in [7] it was over 5000 nM; in [2] it was over 10000 nM. Also, the outcome in the series on Mus musculus [4] and in the series on Mus musculus [6] was Active.

With `NC(=O)c1ccc(C(=O)O)cc1`, the inhibition constant Ki (on Mu-type opioid receptor; in series [1]; in series [3]; in series [7]; in [2]) was over 10000 nM in each case.

As for `NC(=O)c1ccc(C(=O)OC(CCCN2CCC(O)(c3ccc(Cl)cc3)CC2)c2ccc(F)cc2)cc1` (stereo not drawn), the inhibition constant Ki at Mu-type opioid receptor is 817 nM; in [1] it was over 10000 nM; in series [3], 618 nM; in series [7] it was 173 nM; in [2], over 10000 nM.

Consider `C[C@@H]1CCO[C@H]2Cn3cc(C(=O)NCc4ccc(F)cc4F)c(=O)c(O)c3C(=O)N12` [DOLUTEGRAVIR], for which the values for the inhibitory constant (Ki) in series [3] and in series [7] were 18 nM and 124 nM, respectively.

Consider `CN1CCN(CCc2ccc(Cl)c(Cl)c2)CC1`, for which the inhibition constant Ki in series [20] is 14 nM. Also, the ED50 with Mus musculus [18] is 10.3 mg/kg.

As to `O=C(NC1CCN(Cc2ccccc2)CC1)c1ccc(F)cc1`, the inhibitory constant (Ki) in series [21] is 6 nM; in [7], 6 nM; in series [22] it was 190 nM.

`Oc1ccc2c3c1O[C@H]1c4[nH]c5ccccc5c4C[C@@]4(O)[C@@H](C2)N(CC2CC2)CC[C@]314` [NALTRINDOLE] displayed an inhibitory constant (Ki) in series [1] of 2.53 nM.

For the molecule `NC(=O)c1ccc(C(=O)OCCCCN2CCC(O)(c3ccc(Cl)cc3)CC2)cc1`, the Ki on Mu-type opioid receptor is over 10000 nM; in series [1], over 10000 nM; in series [3], 933 nM; in series [7], 126 nM; in series [2], over 10000 nM.

As for `NC(=S)c1ccc(C(=O)OCCCCN2CCC(O)(c3ccc(Cl)cc3)CC2)cc1`, the inhibition constant Ki was over 10000 nM on Mu-type opioid receptor; over 10000 nM in series [1]; 266 nM in [3]; 58 nM in series [7]; over 10000 nM in [2]. Also, the Activity in series [5] was determined as 41.8 µM.

With `NC(=S)c1ccc(C(=O)OC(CCCN2CCC(O)(c3ccc(Cl)cc3)CC2)c2ccc(F)cc2)cc1` (stereo not drawn), the inhibition constant (Ki) at Mu-type opioid receptor is 1460 nM; in [1] it was over 10000 nM; in series [3] it was 311 nM; in series [7], 156 nM; in series [2], over 10000 nM. Moreover, the Activity in [5] worked out at 51.7 µM.

(Values after ChEMBL document CHEMBL5131436, “Dual Sigma-1 receptor antagonists and hydrogen sulfide-releasing compounds for pain treatment: Design, synthesis, and pharmacological evaluation” (Eur J Med Chem, 2022).)
